Test results as given in US10463651B2, “3-(1H-pyrrolo[3,2-C]pyridin-2-YL)-1H-indazoles and therapeutic uses thereof” (Samumed, LLC, priority 2015, dated 2019).
pEC50: −log10 of the molar value.

What was measured:
Format in all cases: cell-based
SW480 colon cancer cells = test: Cell viability assay (CellTiter-Blue); conditions: Homo sapiens; for pEC50: 96 h, SW480 cell viability, four days, CellTiter-Blue
Protocol: Representative compounds were screened using the following assay procedure to assess the effect on cell viability as described below.
Approximately 2×10^3 SW480 colon cancer cells were seeded into each well and allowed to incubate in the presence or absence of compound for four days at 37° C./5% CO2. Eight replicates of DMSO-treated cells served as controls and cells treated with compound were performed in duplicate.
After incubation, 20 μL of CellTiter-Blue (Promega) was added to each well allowed to incubate for approximately 3 hours. This reagent was a buffered solution which contains resazurin, metabolically active cells were able to reduce rezarurin (blue) into resorufin (pink) which was highly fluorescent. This measured fluorescence was used as a readout for cell viability.

[1] = system: Wnt activity (Sp5-Luc reporter, SW480 colon carcinoma cells); test: Screening assay for Wnt activity (Sp5-Luc reporter gene assay in SW480 cells); conditions: Homo sapiens; for pEC50: Sp5-Luc reporter, SW480 cells, incubated overnight; for inhibition at 10 µM: SW480, read-out: percent inhibition at 10 μM
Source text: The screening assay for Wnt activity is described as follows. Reporter cell lines can be generated by stably transducing cancer cell lines (e.g., colon cancer) or primary cells (e.g., IEC-6 intestinal cells) with a lentiviral construct that includes a Wnt-responsive promoter driving expression of the firefly luciferase gene.
SW480 colon carcinoma cells were transduced with a lentiviral vector expressing luciferase with a human Sp5 promoter consisting of a sequence of eight TCF/LEF binding sites. SW480 cells stably expressing the Sp5-Luc reporter gene and a hygromycin resistance gene were selected by treatment with 150 μg/mL of hygromycin for 7 days. These stably transduced SW480 cells were expanded in cell culture and used for all further screening activities. […] For Sp5-Luc reporter gene assays, the cells were plated at 4,000 cells/well in 384-well plates with medium containing 1% fetal bovine serum and incubated overnight at 37° C. and 5% CO2. Following incubation, 20 μl of BrightGlo luminescence reagent (Promega) was added to each well of the 384-well assay plates. The plates were placed on an orbital shaker for 2 min and then luminescence was quantified using the Envision (Perkin Elmer) plate reader. Readings were normalized to DMSO only treated cells, and normalized activities were utilized for EC50 calculations using the dose-response log (inhibitor) vs. response-variable slope (four parameters) nonlinear regression feature available in GraphPad Prism 5.0 (or Dotmatics).

IL-6 (THP-1 cells) = test: IL-6 inhibition in LPS-stimulated THP-1 cells (HTRF); conditions: Homo sapiens; for inhibition at 10 µM: THP-1, read-out: percent inhibition at 10 M; for pEC50: IL6 by HTRF, THP-1 cells, 500 ng/mL LPS, 22 hours
Protocol: THP-1 cells were cultured in basal media with 1% FBS for 24 hours before the start of the assay. […] THP-1 cells were plated at 5000 cells/well in the 384-well plates and incubated at 37° C. for 2 h. 500 ng/mL of LPS was added after 2 hours and cells were incubated for another 22 hours at 37° C. Plates were spun in a centrifuge for 1 minute at […] and a mixture of anti-IL6 XL665, and anti-IL6 Cryptate diluted in reconstitution buffer (Cisbio Inc.) was added to each well. Following incubation for 3 hrs at room temperature, Homogeneous Time-Resolved Fluorescence (HTRF) was measured using the Envision (Perkin Elmer) at 665 nm and […]. The ratio of fluorescence at 665 nm to 620 nm was used as a readout for IL6 quantification. All samples were processed in duplicate. Readings were normalized to DMSO treated cells and normalized activities were utilized for EC50 calculations using the dose-response log (inhibitor) vs. response-variable slope (four parameters) nonlinear regression feature available in GraphPad Prism 5.0 (or Dotmatics).

[2] = system: primary human fibroblasts derived from IPF patients (LL29 cells) treated with TGF-β1; test: Inhibition of the fibrotic process (αSMA staining) in TGF-β1-treated fibroblasts; conditions: Fibroblast, 96 h; for pEC50: % αSMA-positive LL29 cells, TGF-β1 20 ng/mL, 4 days
Protocol: Representative compounds were screened using primary human fibroblasts (derived from IPF patients) treated with TGF-β1 to determine their ability to inhibit the fibrotic process.
LL29 cells are plated at 1,500 cells/well in 80 μL/well F12 medium supplemented with 1% Fetal Bovine Serum. […] Wells treated with TGF-P1 and containing DMSO were used as controls. […] Following incubation for 4 days, SYTOX green nucleic acid stain (Life Technologies [Thermo Fisher Scientific]) was added to the wells at a final concentration of 1 μM and incubated at room temperature for 30 min.

Row | Compound | pEC50 (SW480 colon cancer cells) | pEC50 [1] | pEC50 (IL-6 (THP-1 cells)) | inhibition at 10 µM (IL-6 (THP-1 cells)) [%] | pEC50 [2] | inhibition at 10 µM (SW480 colon cancer cells; SW480, 96 h, read-out: percent inhibition at 10 μM) [%] | inhibition at 10 µM [1] [%] | inhibition at 10 µM ([2]; read-out: percent inhibition at 10 μM) [%]
1 | c1ccc(-c2ccc3[nH]nc(-c4cc5c(-c6cccs6)nccc5[nH]4)c3c2)nc1 [Compound 364, 5-(Pyridin-2-yl)-3-(4-(thiophen-2-yl)-1H-pyrrolo[3,2-c]pyridin-2-yl)-1H-indazole] | 5.72 | 5.65 | < 5.00 | 44 | 5.75 |  |  | 
2 | Fc1ccccc1-c1nccc2[nH]c(-c3n[nH]c4ccc(-c5ccccn5)cc34)cc12 [Compound 84, 3-(4-(2-Fluorophenyl)-1H-pyrrolo[3,2-c]pyridin-2-yl)-5-(pyridin-2-yl)-1H-indazole] | 5.99 | 5.91 | 5.71 |  | 6.18 |  |  | 
3 | c1cc2[nH]c(-c3n[nH]c4ccc(-c5cncc(OC6CCCCC6)c5)cc34)cc2c(N2CCCCC2)n1 [Compound 607, 5-(5-(Cyclohexyloxy)pyridin-3-yl)-3-(4-(piperidin-1-yl)-1H-pyrrolo[3,2-c]pyridin-2-yl)-1H-indazole] | 5.82 | 5.94 | 5.98 |  | 6.31 |  |  | 
4 | Fc1ccc(-c2nccc3[nH]c(-c4n[nH]c5ccc(-c6cn[nH]c6)cc45)cc23)cc1 [Compound 523, 3-(4-(4-Fluorophenyl)-1H-pyrrolo[3,2-c]pyridin-2-yl)-5-(1H-pyrazol-4-yl)-1H-indazole] | 6.08 | 6.95 | 7.04 |  | 6.79 |  |  | 
5 | CC(C)CC(=O)Nc1cncc(-c2ccc3[nH]nc(-c4cc5c(-c6cc(F)cc(CNS(C)(=O)=O)c6)nccc5[nH]4)c3c2)c1 [Compound 478, N-(5-(3-(4-(3-Fluoro-5-(methylsulfonamidomethyl)phenyl)-1H-pyrrolo[3,2-c]pyridin-2-yl)-1H-indazol-5-yl)pyridin-3-yl)-3-methylbutanamide] | 5.97 | 6.24 | 6.94 |  | 5.63 |  |  | 
6 | CS(=O)(=O)NCc1cc(F)cc(-c2nccc3[nH]c(-c4n[nH]c5ccc(-c6cncc(NC(=O)C7CC7)c6)cc45)cc23)c1 [Compound 496, N-(5-(3-(4-(3-Fluoro-5-(methylsulfonamidomethyl)phenyl)-1H-pyrrolo[3,2-c]pyridin-2-yl)-1H-indazol-5-yl)pyridin-3-yl)cyclopropanecarboxamide] | 6.03 | 6.43 | 6.86 |  | 5.29 |  |  | 
7 | O=C(Nc1cncc(-c2ccc3[nH]nc(-c4cc5c(-c6ccc(F)cc6)nccc5[nH]4)c3c2)c1)c1ccccc1 [Compound 39, N-(5-(3-(4-(4-Fluorophenyl)-1H-pyrrolo[3,2-c]pyridin-2-yl)-1H-indazol-5-yl)pyridin-3-yl)benzamide] | 6.27 | 5.79 | 5.46 |  | 6.30 |  |  | 
8 | Fc1cccc(-c2nccc3[nH]c(-c4n[nH]c5ccc(C6CCNCC6)cc45)cc23)c1 [Compound 505, 3-(4-(3-Fluorophenyl)-1H-pyrrolo[3,2-c]pyridin-2-yl)-5-(piperidin-4-yl)-1H-indazole] | 5.42 | 5.44 | 6.14 |  | 5.48 |  |  | 
9 | CS(=O)(=O)NCc1cc(F)cc(-c2nccc3[nH]c(-c4n[nH]c5ccc(-c6cncc(OCc7ccccc7)c6)cc45)cc23)c1 [Compound 774, N-(3-(2-(5-(5-(Benzyloxy)pyridin-3-yl)-1H-indazol-3-yl)-1H-pyrrolo[3,2-c]pyridin-4-yl)-5-fluorobenzyl)methanesulfonamide] | 6.03 | 5.99 | < 5.00 | 42.4 | 5.64 |  |  | 
10 | CN1CCN(c2nccc3[nH]c(-c4n[nH]c5ccc(-c6cncnc6)cc45)cc23)CC1 [Compound 251, 3-(4-(4-Methylpiperazin-1-yl)-1H-pyrrolo[3,2-c]pyridin-2-yl)-5-(pyrimidin-5-yl)-1H-indazole] | < 5.00 | < 5.00 | 5.08 |  | 5.01 | 20 | 20.2 | 
11 | c1cc(-c2ccc3[nH]nc(-c4cc5c(N6CCCCC6)nccc5[nH]4)c3c2)ccn1 [Compound 186, 3-(4-(Piperidin-1-yl)-1H-pyrrolo[3,2-c]pyridin-2-yl)-5-(pyridin-4-yl)-1H-indazole] | 5.99 | 5.68 | < 5.00 | 53.9 | 6.08 |  |  | 
12 | CN1CCN(c2nccc3[nH]c(-c4n[nH]c5ccc(-c6ccccn6)cc45)cc23)CC1 [Compound 252, 3-(4-(4-Methylpiperazin-1-yl)-1H-pyrrolo[3,2-c]pyridin-2-yl)-5-(pyridin-2-yl)-1H-indazole] | 5.33 | < 5.00 | 5.56 |  | 5.84 |  | 18.8 | 

Second part, led by results:

Row | pEC50 (SW480 colon cancer cells) | pEC50 [1] | pEC50 (IL-6 (THP-1 cells)) | Compound | inhibition at 10 µM (IL-6 (THP-1 cells)) [%] | pEC50 [2] | inhibition at 10 µM (SW480 colon cancer cells; SW480, 96 h, read-out: percent inhibition at 10 μM) [%] | inhibition at 10 µM [1] [%] | inhibition at 10 µM ([2]; read-out: percent inhibition at 10 μM) [%]
13 | 6.24 | 5.97 | 5.51 | Fc1cccc(-c2nccc3[nH]c(-c4n[nH]c5ccc(-c6ccccn6)cc45)cc23)c1 [Compound 28, 3-(4-(3-Fluorophenyl)-1H-pyrrolo[3,2-c]pyridin-2-yl)-5-(pyridin-2-yl)-1H-indazole] |  | 6.38 |  |  | 
14 | 6.18 | 6.13 | 6.68 | CC(C)(C)C(=O)Nc1cncc(-c2ccc3[nH]nc(-c4cc5c(-c6ccc(F)cc6)nccc5[nH]4)c3c2)c1 [Compound 36, N-(5-(3-(4-(4-Fluorophenyl)-1H-pyrrolo[3,2-c]pyridin-2-yl)-1H-indazol-5-yl)pyridin-3-yl)pivalamide] |  | 6.13 |  |  | 
15 | 6.18 | 5.90 | 5.96 | c1cncc(-c2ccc3[nH]nc(-c4cc5c(-c6ccsc6)nccc5[nH]4)c3c2)c1 [Compound 284, 5-(Pyridin-3-yl)-3-(4-(thiophen-3-yl)-1H-pyrrolo[3,2-c]pyridin-2-yl)-1H-indazole] |  | 6.19 |  |  | 
16 | 6.36 | 6.35 | 5.88 | CC(C)CC(=O)Nc1cncc(-c2ccc3[nH]nc(-c4cc5c(-c6ccc(F)cc6)nccc5[nH]4)c3c2)c1 [Compound 30, N-(5-(3-(4-(4-Fluorophenyl)-1H-pyrrolo[3,2-c]pyridin-2-yl)-1H-indazol-5-yl)pyridin-3-yl)-3-methylbutanamide] |  | 6.48 |  |  | 
17 | 5.09 | < 5.00 | 6.48 | CN(C)c1cncc(-c2ccc3[nH]nc(-c4cc5c(-c6cccnc6)nccc5[nH]4)c3c2)c1 [Compound 91, N,N-Dimethyl-5-(3-(4-(pyridin-3-yl)-1H-pyrrolo[3,2-c]pyridin-2-yl)-1H-indazol-5-yl)pyridin-3-amine] |  | < 5.00 |  | 35.7 | 46.9
18 | 5.93 | 5.47 | 5.15 | CN(C)CCOc1cncc(-c2ccc3[nH]nc(-c4cc5c(-c6ccc(F)cc6)nccc5[nH]4)c3c2)c1 [Compound 531, 2-((5-(3-(4-(4-fluorophenyl)-1H-pyrrolo[3,2-c]pyridin-2-yl)-1H-indazol-5-yl)pyridin-3-yl)oxy)-N,N-dimethylethan-1-amine] |  | 6.04 |  |  | 
